Reference: US20230364069A1, “METHOD FOR TREATING NON-ALCOHOLIC STEATOHEPATITIS THROUGH CO-ADMINISTRATION OF CURCUMIN DERIVATIVE AND TGF-B RECEPTOR INHIBITOR” (UNIVERSITY INDUSTRY FOUNDATION, YONSEI UNIVERSITY WONJU …, priority 2021, published 2023)

Legend:
[1] = tested on: mouse hepatocyte cell lines (AML12); test: Fat accumulation induced by oleic acid (BODIPY staining, Western blotting); assay type: cell-based; conditions: 500 μM oleic acid, 24 hours; for fat increased by oleic acid (BODIPY staining, adipophilin and SREBP1C Western blotting): 1 μM Cur5-8, 10 μM EW-7197, FIGS. 6 and 7
Procedure: Fat accumulation was induced in hepatocytes with oleic acid, curcumin derivatives were administered, and fat synthesis and degradation were confirmed.
Specifically, oleic acid was dissolved in 0.2% bovine serum albumin (BSA) at a concentration of 500 μM, and the cells of Example 1-1 were cultured for 24 hours and treated with the resultant, and also treated with 1 μM curcumin (Cur), 1 μM curcumin 5-8 (Cur5-8), 1 μM curcumin 4-8 (Cur4-8), and 1 μM curcumin 5-14 (Cur5-14) for the same period of time. Thereafter, BODIPY-fatty acid solution (Sigma, 1 mg/mL of stock DMSO solution was diluted with PBS 1× to obtain a final concentration of 0.2 μg/mL) was administered to cells cultured in an incubator of 5% CO2 at 37° C. and cultured for one hour. After washing with PBS 1×, stained cells were observed.
In addition, the cells of Example 1-1 were treated with oleic acid in the same manner as described above and treated with 1 μM curcumin (Cur), 1 μM Curcumin 5-8 (Cur5-8), and 10 μM EW-7197 (EW), and then BODIPY-fatty acid staining was performed in the same manner as above. In addition, the cells were collected after treatment, and the protein expressions of adipophilin as a fat accumulation inducing factor and SREBP1C as a fat metabolism regulator in the collected cells were checked by Western blotting. To this end, Western blotting was performed by using the collected cells in the same method as described in <Example 1-3>. At this time, an anti-β-actin antibody, an anti-adipophilin antibody, and an anti-SREBP1C antibody were used as primary antibodies.
The mouse hepatocyte cell lines were treated with oleic acid by the method described in Example 1-4 and were simultaneously treated with each of curcumin (Cur) and curcumin derivatives (Cur5-8, Cur4-8, and Cur5-14) for 24 hours, and fat was stained by BODIPY staining method. […]

[2] = tested on: LX-2 cells (human hepatic stellate cell lines); test: Fibrosis markers by Western blotting after TGF-β induction, TGF-β receptor inhibitor; assay type: cell-based; conditions: 2 ng/ml TGF-β, 10 μM EW-7197, 24 hours, FIG. 3
Procedure: Cell experiments were performed by using AML12, […], and LX-2 cells, a human hepatic stellate cell.
LX-2 cells were cultured in a culture medium made by adding 1% penicillin streptomycin (anti-anti) and 10% fetal bovine serum (FBS) to a DMEM medium containing high glucose (4500 mg/L D-glucose, L-glutamine, 110 mg/L sodium pyruvate, sodium bicarbonate).
Fibrosis was induced in hepatocytes with TGF-β, a TGF-β receptor inhibitor was administered, and fibrosis was checked.
Specifically, 2 ng/ml of TGF-β was administered to the cells of Example 1-1, and administered or not administered with 10 μM EW-7197 (EW), and cultured for 24 hours. The control group (Con) was not treated with either TGF-β or the sample. […] A protein concentration was measured by BCA assay (Pierce Biotechnology Inc). […] Then, the membranes were washed, briefly incubated with Pico Enhanced Peroxidase Detection (EPD) Western reagent (ELPISBIOTECH. INC.) according to the manufacturer's procedure, and quantified by using an image analyzer (ImageQuant™ LAS 500, GE Healthcare Bio-Sciences AB, Uppsala, Sweden). β-actin was used as an internal control. Densitometry of protein intensity was quantified by using ImageJ (National Institutes of Health). […]

[3] = tested on: mouse hepatocyte cell lines (AML12); test: TGF-β-induced fibrosis, co-administration of dehydrozingerone derivative and EW-7197 (epithelial-mesenchymal conversion, BODIPY, α-SMA staining); assay type: cell-based; conditions: 2 ng/ml TGF-β, 24 hours, 10 μM EW-7197, 1 μM Cur or Cur5-8, 10 μM DHZ, DHZ103 or DHZ176
Procedure: In addition, the curcumin derivative Cur5-8 of Example 1-4 and the TGF-β receptor inhibitor were co-administered, and then fibrosis and fat synthesis and degradation were checked again. […] The control group (Con) was not treated with either TGF-β or the sample. […] After washing with PBS 1×, stained cells were observed. In addition, in order to check the degree of fibrosis of hepatocytes, the cells cultured for 24 hours were fixed with 4% paraformaldehyde and stained by using α-SMA (Santa Cruz Biotechnology, Inc., Dallas, Texas, USA), an Alexafluor 488 (Cell Signaling Technology, Danvers, Massachusetts, USA) antibody, and DAPI (Abcam plc., Cambridge, MA, USA). The cells were mounted with a mounting solution (Fisher Scientific, Hampton, Rockingham, USA), the manufactured sample was photographed using a confocal microscope to obtain photographs of stained cells, and the degree of color development in the photographs of the stained cells was analyzed with the ImageJ program.

[4] = tested on: liver fibrosis model; conditions: carbon tetrachloride (CCL4) administration and bile duct ligation; previous studies; cited from earlier work
[5] = tested on: lung fibrosis model; conditions: bleomycin (BLM); previous studies; cited from earlier work

SMILES	fat increased by oleic acid (BODIPY staining) ([1]; 1 μM compound, FIGS. 4 and 5)	fat increased by oleic acid (BODIPY staining, adipophilin and SREBP1C Western blotting) [1]	protein expressions of α-SMA, Coll, p-SMAD2, and p-SMAD3 increased by TGF-β [2]	epithelial-mesenchymal conversion caused by TGF-β ([3]; FIG. 16)	fat accumulation / adipogenesis in cells (BODIPY staining) ([3]; FIGS. 16, 17)	liver fibrosis (α-SMA staining) ([3]; FIGS. 16, 18)	liver damage [4]	tissue fibrosis (lung) [5]
COc1cc(/C=C/C(=O)c2cccc(NC(=O)C(C)C)c2)ccc1O [Cur5-8, N-{3-[(2E)-3-(4-hydroxy-3-methoxyphenyl)prop-2-enoyl]phenyl}-2-methylpropanamide]	most effectively reduced fat	reduced the fat increased by oleic acid	–	–	–	–	–	–
Cc1cccc(-c2[nH]c(CNc3ccccc3F)nc2-c2ccc3ncnn3c2)n1 [EW-7197, N-(2-fluorophenyl)-5-(6-methyl-2-pyridinyl)-4-[1,2,4]triazolo[1,5-a]pyridin-6-yl-1H-imidazole-2-methanamine]	–	promotes the fat increase caused by oleic acid	inhibited	inhibited	fat accumulation in cells was exhibited	inhibited	suppressing liver damage	suppressing tissue fibrosis
